Results from patent US12678458B2, “Antiseptic composition” (BOBS SILVER, priority 2020, dated 2026).
In brackets after ≈: the same amount, converted by molar mass.

Columns and labels:
[1] = tested on: Streptococcus pyogenes; assay: Agar diffusion test, inhibitory zones; format: cell-based; details: S. pyogenes; 0.1 ml in 9 mm wells
[2] = tested on: Candida albicans ATCC 10231 (NBIMCC 74); assay: Agar diffusion test, inhibitory zones; format: cell-based; details: C. albicans; 0.1 ml in 9 mm wells
[3] = tested on: Total Gram-positive; assay: organism not typed; format: cell-based
[4] = tested on: Clostridium perfringens; assay: microbe, parasite or virus in culture; format: cell-based
[5] = tested on: Total Gram-negative; assay: organism not typed; format: cell-based
[6] = tested on: Staphylococcus aureus; assay: Minimum inhibitory concentrations, two-fold serial dilution in agar; format: cell-based; details: S. aureus
[7] = tested on: Total (all microorganisms); assay: as above; format: cell-based
[8] = tested on: Total bacteria; assay: Agar diffusion test, inhibitory zones; format: cell-based
[9] = tested on: Pseudomonas aeruginosa; assay: Agar diffusion test, inhibitory zones; format: cell-based; details: P. aeruginosa; 0.1 ml in 9 mm wells
[10] = tested on: Esherichia coli ATCC-8739 (NBIMCC 3397); assay: Agar diffusion test, inhibitory zones; format: cell-based, Escherichia coli; details: E. coli; 0.1 ml in 9 mm wells
[11] = tested on: Clostridium perfringens ATCC 13124 (NBIMCC 8615); format: cell-based; details: C. perfringens; 0.1 ml in 9 mm wells
[12] = tested on: Salmonella enterica subsp. enterica ATCC 1304 (NBIMCC 8691); assay: Agar diffusion test, inhibitory zones; format: cell-based; details: S. enterica; 0.1 ml in 9 mm wells
[13] = tested on: Staphylococcus aureus subsp. aureus ATCC-6538 (NBIMCC 3359); assay: Agar diffusion test, inhibitory zones; format: cell-based; details: S. aureus; 0.1 ml in 9 mm wells
[14] = tested on: Esherichia coli; assay: Minimum inhibitory concentrations, two-fold serial dilution in agar; format: cell-based, Escherichia coli; details: E. coli
[15] = tested on: Streptococcus pyogenes; assay: as above; format: cell-based; details: S. pyogenes
[16] = tested on: Total (all microorganisms); assay: Agar diffusion test, inhibitory zones; format: cell-based
[17] = tested on: Salmonella enterica; assay: microbe, parasite or virus in culture; format: cell-based
[18] = tested on: Candida albicans; assay: Minimum inhibitory concentrations, two-fold serial dilution in agar; format: cell-based; details: C. albicans
[19] = tested on: Total bacteria; assay: as above; format: cell-based
[20] = tested on: Total Gram-negative; assay: Agar diffusion test, inhibitory zones; format: cell-based
[21] = tested on: Total Gram-positive bacteria; format: cell-based
[22] = tested on: Pseudomonas aeruginosa; assay: Minimum inhibitory concentrations, two-fold serial dilution in agar; format: cell-based; details: P. aeruginosa
[23] = tested on: HRV-A16; details: well-known antiviral compound; cited from earlier work

Structure (SMILES): CS(=O)(=O)c1ccc([C@@H](O)[C@@H](CO)NC(=O)C(Cl)Cl)cc1 [Thiamphenicol, thiamphenicol]
- Inhibitory zones in mm [1]: 26.0 ± 4.5 mm
- Inhibitory zones in mm [2]: 28.7 ± 3.7 mm
- Th D [3]: 42.00 µg/mL
- MIC50 ([3]; read-out: Th MIC50): 21 µg/mL (≈ 59 µM)
- Th D ([4]; C. perfringens): 16 µg/mL
- MIC50 ([4]; Clostridium perfringens, read-out: Th MIC50): 4 µg/mL (≈ 11.2 µM)
- Th D [5]: 64.00 µg/mL
- MIC50 ([5]; read-out: Th MIC50): 10.7 µg/mL (≈ 30 µM)
- Th D [6]: 64 µg/mL
- MIC50 ([6]; Staphylococcus aureus, read-out: Th MIC50): 16 µg/mL (≈ 44.9 µM)
- Th D [7]: 84.00 µg/mL
- MIC50 ([7]; Total (all microorganisms), read-out: Th MIC50): 16.6 µg/mL (≈ 46.5 µM)
- Inhibitory zones in mm [8]: 29.9 ± 5.7 mm
- Inhibitory zones in mm [9]: 34.8 ± 0.8 mm
- Inhibitory zones in mm [10]: 36.0 ± 0.8 mm
- Inhibitory zones in mm [11]: 21.3 ± 0.5 mm
- Inhibitory zones in mm [12]: 35.3 ± 0.8 mm
- Inhibitory zones in mm [13]: 25.7 ± 3.3 mm
- Th D [14]: 64 µg/mL
- MIC50 ([14]; Escherichia coli, read-out: Th MIC50): 8 µg/mL (≈ 22.5 µM)
- Th D [15]: 128 µg/mL
- MIC50 ([15]; Streptococcus pyogenes, read-out: Th MIC50): 32 µg/mL (≈ 89.8 µM)
- Inhibitory zones in mm [16]: 29.7 ± 5.3 mm
- Th D ([17]; S. enterica): 64 µg/mL
- MIC50 ([17]; Salmonella enterica, read-out: Th MIC50): 16 µg/mL (≈ 44.9 µM)
- Th D [18]: 128 µg/mL
- MIC50 ([18]; Candida albicans, read-out: Th MIC50): 32 µg/mL (≈ 89.8 µM)
- Th D [19]: 66.7 µg/mL
- MIC50 ([19]; Total bacteria, read-out: Th MIC50): 14 µg/mL (≈ 39.3 µM)
- Inhibitory zones in mm [20]: 35.4 ± 0.5 mm
- Inhibitory zones in mm [21]: 24.3 ± 2.1 mm
- Th D [22]: 64 µg/mL
- MIC50 ([22]; Pseudomonas aeruginosa, read-out: Th MIC50): 8 µg/mL (≈ 22.5 µM)

Structure (SMILES): CCOC(=O)/C=C/[C@H](C[C@@H]1CCNC1=O)NC(=O)[C@@H](CC(=O)[C@@H](NC(=O)c1cc(C)on1)C(C)C)Cc1ccc(F)cc1 [rupintrivir]
- antiviral response [23]: almost complete response
